Results on two molecules are retold here after PMC12494831, “Discovery of new pyridine 3-carboxylic acid-based pharmacophores as dual anti-inflammatory and anti-hyperglycemic agents” (Scientific Reports, 2025).

In one assay the target is T1, α-amylase (EC.3.2.1.1) (Homo sapiens, UniProt P04746).
T1 sequence (P04746 16-511): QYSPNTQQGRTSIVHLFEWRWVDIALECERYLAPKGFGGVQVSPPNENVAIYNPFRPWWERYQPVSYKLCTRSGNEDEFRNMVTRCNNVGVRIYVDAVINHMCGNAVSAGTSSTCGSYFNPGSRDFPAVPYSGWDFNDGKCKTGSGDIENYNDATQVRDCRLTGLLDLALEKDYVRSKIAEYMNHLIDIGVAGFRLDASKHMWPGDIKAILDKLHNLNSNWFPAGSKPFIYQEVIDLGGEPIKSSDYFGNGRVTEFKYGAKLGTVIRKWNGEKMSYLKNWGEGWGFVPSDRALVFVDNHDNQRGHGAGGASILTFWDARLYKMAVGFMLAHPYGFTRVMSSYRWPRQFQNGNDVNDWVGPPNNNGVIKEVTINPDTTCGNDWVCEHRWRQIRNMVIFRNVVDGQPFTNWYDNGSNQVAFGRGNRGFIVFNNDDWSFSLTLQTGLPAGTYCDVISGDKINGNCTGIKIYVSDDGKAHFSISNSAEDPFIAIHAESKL
Nature of the assay: In vitro α-amylase inhibition (starch/DNS, 540 nm). The format is biochemical. As to conditions: for IC50: test concentrations 2-10 µg, read-out: α-Amylase IC50±SD (converted). As for the experimental part: α-Amylase enzyme and other chemical reagents are used for enzyme inhibitory activity. The characterized compounds are diluted in an analytical grad solvent (DMSO) system at 1 mg/mL solution concentration. The activity reaction of the synthesized analogues on the enzyme was treated at final concentrations of 2 to 10 µg. In the interaction between enzyme and compounds, 10 min incubation was maintained before the inhibitory activity started. The enzyme-receptor inhibition efficiency was calculated and compared with the positive control.
Sodium phosphate buffer 0.2 mM (pH 6.9 with 6 × 10^− 4 M NaCl) in 500 µL enzyme solution (0.5 mg/mL) was taken and incubated with test samples (2–10 µg/mL) at room temperature for 10 min. A starch (1%) solution of 500 µL with phosphate buffer was added to all test inhibitor samples; further, the tubes were incubated for 10 min at 28 °C. The reaction test tubes were incubated for another 5 min in the water bath (100 °C) after the addition of the color reagent dinitro salicylic acid and cooled at room temperature until reached. Finally, 10 mL of distilled water was mixed with each test tube, and the colored mixture was measured at a fixed wavelength of 540 nm. The absorbance without sample solution (blank) and control (buffer and standard drug sample) was measured at 540 nm. The α-amylase inhibition efficiency was validated using the following equation:2 [drawing 2]

Assay [1] in a line: DPPH radical scavenging (517 nm). The settings on record: for IC50: read-out: DPPH IC50±SD. On the procedure: (§1) The experimental method principle relies on the degradation of the purple color of the DPPH radical and the blue color reduction of the ABTS cation radical. This is due to consuming the electron or hydrogen radical from the antioxidant (A-H). Both assays were measured at 517 nm and 734 nm, respectively. The distinction of color changes illustrates the potential scavenging activity of the inhibitor molecules in terms of hydrogen-donating proficiency. From this, we can conclude the anti-oxidant efficacy.
Methanolic DPPH solution (0.15 mM) was prepared, and 1.0 mL of DPPH solution was mixed with 3.0 mL of synthesized molecules at different concentrations (20 µM to 100 µM). The mixture was constantly swirled and stored RT for 30 min, followed by absorbance measurement at 517 nm.

A short description of assay [2]: ABTS cation radical scavenging (734 nm). As to conditions: for IC50: read-out: ABTS IC50±SD. On the procedure: as §1
In brief, 7.0 mM ABTS in H2O and 2.5 mM potassium persulfate (1:1) were shaken well to generate ABTS cation radicals and kept in the dark at RT for 15–20 h before it is used for the experiment. After, the radical was mixed with the synthesized molecules at different concentrations (20 µM to 100 µM). The resultant solution was measured for absorbance at 734 nm. Ascorbic acid is the positive control for this experiment.1 [drawing 1]

The test system of another assay is human RBC. Put plainly: Anti-inflammatory activity: hypotonic solution-induced human RBC hemolysis (560 nm). The format is cell-based. The settings on record: for IC50: induced human RBC hemolysis, read-out: Inflammatory IC50±SD. As for the experimental part: All synthesized compounds are validated in human RBC (blood sample); the blood sample was collected from a healthy volunteer in an EDTA tube. The EDTA tube further proceeded with centrifugation at 3000 rpm for 30 min. A supernatant (which contains plasma and leucocytes) solution was isolated, and the obtained RBC (red blood cells) was further treated with Alsever’s reagent. Alsever’s reagent was prepared as follows: sodium citrate (0.8 g, 2.6 mmol), dextrose (2 g, 11.0 mmol), citric acid (0.050 g, […]), and sodium chloride (0.42 g, 7.0 mmol) were solubilized in 100 mL of distilled water. The above mixture was centrifuged for 30 min at 3000 rpm. Then, colloidal blood cells were separated, carefully transferred, and washed with 0.85% of the isosaline solution; this process continued until a clear solution appeared. Employing coagulated RBC and generated human erythrocyte hemolysis, the anti-inflammatory activity and potential of the synthesized entities were evaluated. The tested compounds are prepared at different concentrations for the inhibition activity of inflammation, along with 100 µL of a purified RBC sample utilized. All characterized samples were followed by adding 5.0 mL of trisodium phosphate (10 mM) and 5.0 mL of sodium chloride (5.0 mM) buffer solutions. After the addition of the above mixtures, the test samples are incubated for 15 min at room temperature with RBC and hypotonic mixtures. After incubation, the mixture was centrifuged at 3000 rpm for 15 min. The final supernatant liquid solution was measured at 560 nm using a UV-visible spectrophotometer.3 [drawing 3]

In general, IC50 refers to the concentration that gives 50% inhibition. For orientation: inhibition means the drop in the measured response relative to a control, in per cent. Read a low inhibition as a weak effect. Regarding `O=C(Nc1ccc2c(c1)OCO2)c1cccnc1` [Compound 2j, N-(Benzo[1,3]dioxol-5-yl)nicotinamide], the “α-Amylase Inhibition %” value was found to be 85.94% at α-amylase (EC.3.2.1.1) (2 µg); 75.4% at α-amylase (EC.3.2.1.1) (4 µg); 74.67% at α-amylase (EC.3.2.1.1) (6 µg); 68.96% at α-amylase (EC.3.2.1.1) (8 µg); 57.1% on α-amylase (EC.3.2.1.1) (10 µg). Also, the IC50 is 5.47 µM at α-amylase (EC.3.2.1.1), 97.62 ± 0.24 µM in assay [1], 57.25 ± 0.11 µM in assay [2] and 20.3 ± 0.22 µM in the assay with human RBC. Besides, the “DPPH Inhibition %” value turned out to be 34.8% in assay [1] (20 µM); 37.7% in assay [1] (40 µM); 43.7% in assay [1] (60 µM); 46% in assay [1] (80 µM); 50.1% in assay [1] (100 µM). For the same molecule, the “ABTS Inhibition %” value in assay [2] (20 µM) is 28.3%; in assay [2] (40 µM) it was 39%; in assay [2] (60 µM), 42.4%; in assay [2] (80 µM), 45%; in assay [2] (100 µM), 47.9%. Moreover, in the assay on human RBC, at 20 µM the inhibition was 59%. For the same molecule, the inhibition at 40 µM in the assay on human RBC stood at 68%. In the assay on human RBC, this molecule yielded an inhibition at 60 µM of 75%. This molecule returned an inhibition at 80 µM in the assay with human RBC of 92.7%. In the assay on human RBC, this molecule registered an inhibition at 100 µM of 93%.

`CCOc1ccc2nc(NC(=O)c3cccnc3)sc2c1` [Compound 2k, N-(6-ethoxybenzothiazol-2-yl) nicotinamide]: the “α-Amylase Inhibition %” value at α-amylase (EC.3.2.1.1) (2 µg) was determined as 74.81%; on α-amylase (EC.3.2.1.1) (4 µg), 74.52%; on α-amylase (EC.3.2.1.1) (6 µg) it was 69.98%; on α-amylase (EC.3.2.1.1) (8 µg), 69.69%; on α-amylase (EC.3.2.1.1) (10 µg), 55.63%. The IC50 on α-amylase (EC.3.2.1.1) was 5.06 µM; in assay [1] it was 79.62 ± 0.14 µM; in assay [2] it was 88.03 ± 0.17 µM; with human RBC, 25.86 ± 0.23 µM. Further, the “DPPH Inhibition %” value was 8.89% in assay [1] (20 µM); 33.34% in assay [1] (40 µM); 40.65% in assay [1] (60 µM); 49.83% in assay [1] (80 µM); 52.31% in assay [1] (100 µM). For the same molecule, the “ABTS Inhibition %” value was determined as 37.6% in assay [2] (20 µM); 41.8% in assay [2] (40 µM); 46.3% in assay [2] (60 µM); 47.9% in assay [2] (80 µM); 55.8% in assay [2] (100 µM). Moreover, testing at 20 µM with human RBC gave an inhibition of 48.6%. Moreover, the inhibition at 40 µM in the assay on human RBC is 55%. In addition, the inhibition at 60 µM in the assay on human RBC was 66.8%. In the assay on human RBC, this molecule returned an inhibition at 80 µM of 74.5%. For the same molecule, in the assay on human RBC, the inhibition at 100 µM was determined as 87.5%.
